Source: paper PMC6675714 (Cancer Medicine, 2019)
Where “and” joins values, the source holds several entries; their conditions need not be identical. Identical values can stand only once.

How the values were obtained:
Caki‐1 xenograft tumors = assay: Cell proliferation (Ki67) and apoptosis (cleaved caspase 3) in tumor sections; type: in vivo, NOD.CB17‐Prkdc SCID/J mice; details: tumors at 21‐day trial endpoint
Procedure: Tissue sections were prepared by embedding in OCT (Thermo Fisher Scientific, Waltham, MA) followed by freezing at − 80°C. Vessel leakiness was evaluated following tail‐vein injection of 100 μL of Dextran Texas Red (Invitrogen). Vessel integrity was assessed after tail‐vein injection of 50 μL of lectin labelled with FITC (Vector Labs, Burlingame, CA). Apoptotic cells were visualized using an anti‐rabbit cleaved caspase 3 primary antibody (Cell Signaling Technology, Danvers, MA) and an goat‐anti‐rabbit Alexa Fluor 594 secondary antibody (Cell Signaling Technology); proliferating cells were visualized using an anti‐mouse Ki67 primary antibody (Cell Signaling Technology) and an goat‐anti‐mouse Alexa Fluor 488 secondary antibody (Cell Signaling Technology); DAPI containing ProLong Gold Antifade Mounting Medium (Cell Signaling Technology) was used to visualize the nuclei and mount the slide.
For all histological analyses, tumors from treated mice were compared to those of the vehicle control of the intervention trial. Samples from 4 mice per treatment group were analyzed. Stained samples were imaged at 20× magnification (ZEISS LSM 700). Cell proliferation and apoptosis were quantified one channel at a time using ImageJ (NIH, open access software) and were calculated as the percentage of Ki67 positive or cleaved caspase 3 positive cells per DAPI positive cells per field of view.

[1] = Hematology values (complete blood count) after the trial; type: in vivo, NOD-SCID mice
Procedure: Supplementary Table 2. Summary of hematology values (mean) for three specimens (collected 72h after the last dose of 10mg/kg/72h at the end of a 21 day trial (NOD/LtSz-Prkdscid/j. Complete blood counts of each group (n = 3 mice per group). Heparinized blood acquired from mice was assessed using the automatic Hematology Analyzer. Blood smears were carried out and fixed with methanol, stained, and observed under the microscope to carry out differential blood white cell counts.

[2] = Plasma pharmacokinetics after single ip injection (Ru by ICP‐MS); type: in vivo
Procedure: Blood was collected from submandibular vein using a heparin coated glass capillary into heparinized blood collection tubes on ice at time intervals of 1, 2, 6, 12, 24, 48, and 72 hours post injection. Plasma was harvested by centrifuging blood samples at 2800 rpm for 15 minutes at 4°C and stored frozen at − 80°C until analysis. Similarly, kidney, liver, and tumor were harvested after final time point, weighed, and stored into glass vials. One mL of deionized water was added to each tissue sample, subjected to ultrasonic homogenization at 15 W power for 1 minute, followed by lyophilization.
Plasma and tissue concentrations of Ru and Au were measured using inductively coupled plasma–mass spectrometry (ICP‐MS). Plasma (10 μL) or tissue samples were transferred into glass vials, and 1 mL of a 75:25 mixture of nitric acid (16 N) and hydrochloric acid (12 N) was added to each vial. The mixture was then heated at 90°C for 5 hours. After cooling to room temperature, the samples were centrifuged to remove debris if any. All samples were then mixed with 40 ppb of indium internal standard and analyzed using a Thermo Scientific XSERIES 2 ICP‐MS coupled with ESI PC3 Peltier cooled spray chamber, SC‐FAST injection loop, and SC‐4 autosampler. All the elements were measured using He/H2 collision‐reaction mode.
Pharmacokinetic parameters were obtained from the plasma concentration–time profiles by noncompartmental analysis using Phoenix WinNonlin 6.4 version 6.4 (Pharsight Corporation, Mountain View, CA). The pharmacokinetic parameters quantified were the maximum plasma drug concentration (Cmax), the time to reach Cmax (Tmax), the area under the plasma concentration–time curve from 0 hour to last measurable concentration (AUClast), elimination rate constant (ke), plasma half‐life (t1/2), apparent total clearance of the drug from plasma (Cl/F), and apparent volume of distribution (Vd/F). Concentrations of ruthenium and gold in liver, kidney, and tumors were also determined.

[3] = automatic count, blood 72h after last dose, 21 day trial, mean n = 3

In the case of “[Cl2(p‐cymene)Ru(μ‐dppm)Au(IMes)]ClO4 [RANCE‐1]”, the “Apoptotic cells (cleaved caspase 3 positive) per DAPI positive cells” value (Caki‐1 xenograft tumors) is reported as 1.6%, the “Proliferating cells (Ki67 positive) per DAPI positive cells” value (Caki‐1 xenograft tumors) is reported as 2% and the “Reduction of tumor cell proliferation vs Veh” value (Caki‐1 xenograft tumors) is reported as 18 fold. The Decrease in apoptosis (Caki‐1 xenograft tumors; vs Vehicle) was 0.4%, the “Decrease in cell proliferation” value (Caki‐1 xenograft tumors; vs Vehicle) was 36% and the RBC ([1]; automatic count, blood 72h after last dose of 10mg/kg/72h, 21 day trial, mean n = 3, reference range 7.84-10.84) was 10.31 M/uL. The PDW [1, 3] was 7.5 fL, the RDW-SD [1, 3] was 31.03 fL and the RET ([1]; automatic count, blood 72h after last dose, 21 day trial, mean n = 3, reference range 2.56-4.56, marked *▾) was 2.03%. For the same substance, the MPV ([1]; automatic count, blood 72h after last dose, 21 day trial, mean n = 3, reference range 4.2-6.3) was 6.53 fL, the HGB ([1]; automatic count, blood 72h after last dose, 21 day trial, mean n = 3, reference range 11.8-17.6) was 15.8 g/dL and the MCH ([1]; automatic count, blood 72h after last dose, 21 day trial, mean n = 3, reference range 13.7-17.2) was 15.37 pg. The RDW-CV ([1]; automatic count, blood 72h after last dose, 21 day trial, mean n = 3, reference range 17.3-20.3) was 23.5%, the MCHC ([1]; automatic count, blood 72h after last dose, 21 day trial, mean n = 3, reference range 25.1-31.3) was 29.9 g/dL and the HCT ([1]; automatic count, blood 72h after last dose, 21 day trial, mean n = 3, reference range 44.1-58.3) was 52.8%. For the same substance, the MCV ([1]; automatic count, blood 72h after last dose, 21 day trial, mean n = 3, reference range 51.1-58.6) was 51.3 fL, the “RET#” value ([1]; automatic count, blood 72h after last dose, 21 day trial, mean n = 3, reference range 294-444, marked *▾) was 192.67 K/uL and the PLT ([1]; automatic count, blood 72h after last dose, 21 day trial, mean n = 3, reference range 651-2055, marked *▾) was 1056.67 K/uL. For the same substance, the “Morphology (manual differential section)” value ([1]; blood smears, end of 21 day trial) was “Many neutrophils are hypersegmented”, the “Morphology (automatic count section)” value ([1]; blood smears, three specimens, end of 21 day trial) was 2+ PLT clumps. RBC morphology is within normal limits. 4+ polychromasia. 2+ acanthocytes. 4+ polychromasia. 2+ acanthocytes and the “Physicochemical study and complete blood count” value ([1]; end of trial) was “no significant changes”. The “Band#” value ([1]; manual differential, blood 72h after last dose, 21 day trial) was 0 K/uL, the “MONO#” value ([1]; manual differential, blood 72h after last dose, 21 day trial, reference range 0.03-0.26) was 0 K/uL and the “LYMPH#” value ([1]; manual differential, blood 72h after last dose, 21 day trial, reference range 0.23-1.56, marked *▴) was 0.6167 K/uL. The “Neut#” value ([1]; manual differential, blood 72h after last dose, 21 day trial, reference range 0.54-3.16, marked *▴, ◎) was 8.55 K/uL, the MONO ([1]; manual differential, blood 72h after last dose, 21 day trial, reference range 1.71-10.93, marked *▾) was 2% and the LYMPH ([1]; manual differential, blood 72h after last dose, 21 day trial, reference range 13.51-42.61, marked *▾) was 15.67%. The NEUT ([1]; manual differential, blood 72h after last dose, 21 day trial, reference range 44.21-79.92, marked *▴) was 80.67%, the “Time to reach steady state” value ([2]; 10 mg/kg ip) was 203.8 ± 93.4 h and the “AUC0‐72h” value ([2]; 10 mg/kg single ip, plasma) was 792.9 ± 270.3 µg·h/mL. It also gave a Cl/F ([2]; 10 mg/kg single ip, plasma) of 0.1667 ± 0.0525 mL/min/kg, a Cmax ([2]; 10 mg/kg single ip, plasma) of 22600 ± 2580 ng/mL and a Vd/F ([2]; 10 mg/kg single ip, plasma) of 0.6121 ± 0.429 L/kg. For the same substance, the t1/2 ([2]; 10 mg/kg single ip, plasma) was 40.8 h and 40 h and 40.77 ± 18.67 h, the Tmax ([2]; 10 mg/kg single ip, plasma Ru) was 10.00 ± 3.46 h and the Cminss ([2]; predicted, based on a dose of 10 mg/kg every 72 h) was 7170 ± 3910 ng/mL.
